Assay results as given in PubChem BioAssay AID1963870 (Molecular Pharmacology Branch, DTP, NCI, 2024).

Tested on: 292921-168-R-J2-PDC KRAS tumor spheroid viability
Assay: Anticancer human tumor 292921-168-R-J2-PDC patient-derived pancreatic carcinoma cell line growth inhibition [KRAS2]
Conditions: spheroids with HUVEC and MSC; for IC50: curve of first compound; for viability, T/C: stronger effect = lower value
In short: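 KRAS-mutant tumor cells were grown as spheroids with HUVEC endothelial cells and human MSCs as stroma. Targeted agents were tested alone and with KRAS pathway inhibitors. Doses started at or near clinical Cmax, or 10 microM, descending half-log.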
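Also: drug exposure lasted seven days after spheroids formed for three days.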
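For viability, T/C in this document: percent of DMSO vehicle control viability which is 100%.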

Question: For `CC(=O)Nc1cccc(-n2c(=O)n(C3CC3)c(=O)c3c(Nc4ccc(I)cc4F)n(C)c(=O)c(C)c32)c1` + CNCc1ccccc1-c1csc(C(C)Nc2nc(C)nc3cc(OC)c(OC)cc23)c1, which IC50 (second compound 0.1 µM) is on record?
Answer: 0.207 nM

Question: And the IC50 (second compound 0.316 µM)?
Answer: 0.178 nM

Question: And the IC50 (second compound 1 µM)?
Answer: 0.124 nM

Question: What about the IC50 (second compound 3.16 µM) of the same compound?
Answer: < 0.1 nM

Question: What about the IC50 (second compound 10 µM) of the same compound?
Answer: < 0.1 nM

Question: And the viability, T/C (second compound 0.1 µM, first compound 0.0001 µM)?
Answer: 66%

Question: And the viability, T/C (second compound 0.1 µM, first compound 0.000316 µM)?
Answer: 41.9%

Question: And the viability, T/C (second compound 0.1 µM, first compound 0.001 µM)?
Answer: 20.2%

Question: And the viability, T/C (second compound 0.1 µM, first compound 0.00316 µM)?
Answer: 17.5%

Question: What about the viability, T/C (second compound 0.1 µM, first compound 0.01 µM) of the same compound?
Answer: 12%

Question: What about the viability, T/C (second compound 0.1 µM, first compound 0.0316 µM) of the same compound?
Answer: 8.12%

Question: And the viability, T/C (second compound 0.316 µM, first compound 0.0001 µM)?
Answer: 64.5%

Question: And the viability, T/C (second compound 0.316 µM, first compound 0.000316 µM)?
Answer: 35.3%

Question: And the viability, T/C (second compound 0.316 µM, first compound 0.001 µM)?
Answer: 21.8%

Question: And the viability, T/C (second compound 0.316 µM, first compound 0.00316 µM)?
Answer: 16.3%

Question: And the viability, T/C (second compound 0.316 µM, first compound 0.01 µM)?
Answer: 12.3%

Question: And the viability, T/C (second compound 0.316 µM, first compound 0.0316 µM)?
Answer: 8.64%

Question: What about the viability, T/C (second compound 1 µM, first compound 0.0001 µM) of the same compound?
Answer: 55%

Question: What about the viability, T/C (second compound 1 µM, first compound 0.000316 µM) of the same compound?
Answer: 28.2%

Question: What about the viability, T/C (second compound 1 µM, first compound 0.001 µM) of the same compound?
Answer: 17.9%

Question: And the viability, T/C (second compound 1 µM, first compound 0.00316 µM)?
Answer: 13.7%

Question: What about the viability, T/C (second compound 1 µM, first compound 0.01 µM) of the same compound?
Answer: 10.4%

Question: And the viability, T/C (second compound 1 µM, first compound 0.0316 µM)?
Answer: 8.11%

Question: And the viability, T/C (second compound 3.16 µM, first compound 0.0001 µM)?
Answer: 0.21%

Question: What about the viability, T/C (second compound 3.16 µM, first compound 0.000316 µM) of the same compound?
Answer: 0.07%

Question: And the viability, T/C (second compound 3.16 µM, first compound 0.001 µM)?
Answer: 0.05%

Question: And the viability, T/C (second compound 3.16 µM, first compound 0.00316 µM)?
Answer: 0.04%

Question: What about the viability, T/C (second compound 3.16 µM, first compound 0.01 µM) of the same compound?
Answer: 0.04%

Question: And the viability, T/C (second compound 3.16 µM, first compound 0.0316 µM)?
Answer: 0.15%

Question: What about the viability, T/C (second compound 10 µM, first compound 0.0001 µM) of the same compound?
Answer: 0.11%

Question: And the viability, T/C (second compound 10 µM, first compound 0.000316 µM)?
Answer: 0.11%

Question: And the viability, T/C (second compound 10 µM, first compound 0.001 µM)?
Answer: 0.11%

Question: What about the viability, T/C (second compound 10 µM, first compound 0.00316 µM) of the same compound?
Answer: 0.12%

Question: What about the viability, T/C (second compound 10 µM, first compound 0.01 µM) of the same compound?
Answer: 0.12%

Question: What about the viability, T/C (second compound 10 µM, first compound 0.0316 µM) of the same compound?
Answer: 0.2%
